{"source": "patent US20250241902A1", "about": "“METHODS, COMPOSITIONS AND SYSTEMS FOR EVALUATION OF VISUAL FUNCTION” (BELITE BIO, INC, priority 2022, published 2025)", "assay_type_in_all_cases": "in vivo, human", "key": {"[1]": {"test_system": "adolescent STGD1 patients", "experiment": "Clinical study: best corrected visual acuity (BCVA) test", "text": "In some embodiments, visual acuity may be evaluated with a logarithm of the minimum angle of resolution chart (log MAR chart). A log MAR chart comprises rows of letters that are used to estimate visual acuity. Zero log MAR may indicate standard vision, positive values may indicate poor vision and negative values may indicate good vision. In some embodiments, the best corrected visual acuity (BCVA) early treatment diabetic retinopathy study (ETDRS) letters score can be calculated with the following formula: […]\n(§1) The therapeutic effect of a compound of Formula (I), also known as Tinlarebant, was evaluated in a group of individuals with adolescent STGD. The treatment covered Phase 1b and Phase 2. Phase 1b included a 4-week treatment and a 14-day follow-up. Phase 2 included a 2-year treatment and 1-month follow-up. A total of 13 individuals received the treatment: 5 males and 8 females. All 13 individuals had STGD 1 aged 12-18 years old. All 13 individuals received the treatment of a compound of Formula (I), a RBP4 inhibitor.\n(§2) The clinical study evaluated ocular and systemic safety and tolerability of the compound and determined the optimal dose, pharmacokinetics (PK), and […]. The study measured visual improvement by best corrected visual acuity (BCVA) test, self-reported visual questionnaire test, the change in lesion size by FAF, the change in retinal thickness and morphology by SD-OCT, the change in retinal sensitivity by microperimetry, and the change in quantitative AF. In addition, this study evaluated correlation between reduction in RBP4 and rate of lesion growth including change in autofluorescence."}, "[2]": {"test_system": "adolescent STGD1 patients", "experiment": "Clinical study: retinal thickness by SD-OCT (CST, MST, OST)", "text": "(§3) In some embodiments, spectral domain-optical coherence tomography (SD-OCT) is used for evaluation of ocular disease or visual function. In some embodiments, SD-OCT provides in vivo cross-sectional and […] visualization of the retina and the RPE. In some embodiments, SD-OCT is used to detect the presence of RPE atrophy. In some embodiments, SD-OCT is used to evaluate ellipsoid zone (EZ) defect width. In some embodiments, the EZ line provides information on the integrity of the photoreceptors. In some embodiments, the EZ line provides useful information in early disease. In some embodiments, an image of SD-OCT is used to evaluate the central subfield retina thickness (CST). In some embodiments, an image of SD-OCT is used to evaluate the middle subfield retina thickness (MST). In some embodiments, an image of SD-OCT is used to evaluate the outer subfield retina thickness (OST). The therapeutic effect of a compound of Formula (I), also known as Tinlarebant, was evaluated in a group of individuals with adolescent STGD. The treatment covered Phase 1b and Phase 2. Phase 1b included a 4-week treatment and a 14-day follow-up. Phase 2 included a 2-year treatment and 1-month follow-up. A total of 13 individuals received the treatment: 5 males and 8 females. All 13 individuals had STGD 1 aged 12-18 years old. All 13 individuals received the treatment of a compound of Formula (I), a RBP4 inhibitor. The clinical study evaluated ocular and systemic safety and tolerability of the compound and determined the optimal dose, pharmacokinetics (PK), and […]. The study measured visual improvement by best corrected visual acuity (BCVA) test, self-reported visual questionnaire test, the change in lesion size by FAF, the change in retinal thickness and morphology by SD-OCT, the change in retinal sensitivity by microperimetry, and the change in quantitative AF. In addition, this study evaluated correlation between reduction in RBP4 and rate of lesion growth including change in autofluorescence."}, "[3]": {"test_system": "adolescent STGD1 patients", "experiment": "Clinical study: ellipsoid zone (EZ) defect width by SD-OCT", "text": "as §3"}, "[4]": {"test_system": "adolescent STGD1 patients", "experiment": "Clinical study: quantitative autofluorescence (qAF)", "text": "In some embodiments, a method for measuring quantitative autofluorescence (qAF) is used or evaluation of ocular disease or visual function. In some embodiments, the qAF method may incorporate an internal fluorescent reference to account for variable laser power and detector sensitivity. In some embodiments, an intensity of AF may be calculated against the calibrated internal fluorescence reference standard in the optical pathway.\nas §1, §2"}, "[5]": {"conditions": "subject 3, left eye, phase 2 baseline"}, "[6]": {"conditions": "subject 3, left eye, phase 2 month 6"}, "[7]": {"conditions": "subject 4, left eye, phase 2 baseline"}, "[8]": {"conditions": "subject 4, left eye, phase 2 month 6"}, "[9]": {"conditions": "subject 11, both eyes, phase 2 week 1 vs week 9"}}, "note": "“And” between values parts separate entries of the source, which are not always exact repeats. Equal values may be shown once.", "data": [{"molecule": "CC(=O)N1CCc2c(C(=O)N3CCC(c4ccc(F)c(F)c4C(F)(F)F)CC3)n[nH]c2C1", "note": "[Tinlarebant]", "values": [{"measurement": "patients with visual improvement in at least one eye (BCVA)", "setting": "[1]; cohort of 13", "value": "8 out of the 13"}, {"measurement": "patients with visual improvement in both eyes (BCVA)", "setting": "[1]; cohort of 13", "value": 2, "unit": "patients"}, {"measurement": "visual improvement, summary", "setting": "[1]; cohort, approximately 7 months", "value": "Majority of the patients showed visual improvement in at least one eye"}, {"measurement": "BCVA average letters of gain", "setting": "[1]; left eye, cohort", "value": "1.9±1.32", "unit": "letters"}, {"measurement": "BCVA average letters of loss", "setting": "[1]; right eye, cohort", "value": "−2.8±1.85", "unit": "letters"}, {"measurement": "BCVA ETDRS letters gained", "setting": "[1]; subject 4, both eyes", "value": 3, "unit": "ETDRS letters"}, {"measurement": "BCVA letters", "setting": "[1]; subject 4, both eyes, intermediate value in 7-month treatment period", "value": 50, "unit": "letters"}, {"measurement": "BCVA letters", "setting": "[1]; subject 4, both eyes, last value in 7-month treatment period", "value": 53, "unit": "letters"}, {"measurement": "BCVA letters", "setting": "[1]; subject 4, both eyes, start of 7-month treatment period", "value": 45, "unit": "letters"}, {"measurement": "BCVA letters gained", "setting": "[1]; subject 10, both eyes, approximately 7-month treatment", "value": 9, "unit": "letters"}, {"measurement": "BCVA letters gained", "setting": "[1]; subject 11, left eye", "value": 6, "unit": "letters"}, {"measurement": "BCVA change", "setting": "[1]; subject 11, right eye", "value": "no change"}, {"measurement": "patients with improvement (increase in thickness) or no change in OST in both eyes", "setting": "[2]; cohort", "value": 4, "unit": "patients"}, {"measurement": "patients with no change or growth in MST in at least one eye", "setting": "[2]; cohort", "value": 5, "unit": "patients"}, {"measurement": "patients with no to little change in CST in at least one eye", "setting": "[2]; cohort", "value": 5, "unit": "patients"}, {"measurement": "CST change, Left Eye (mean ± SD, μm)", "setting": "[2]; cohort means, Table 4", "value": "−8.83 ± 1.91", "unit": "μm"}, {"measurement": "CST change, Right Eye (mean ± SD, μm)", "setting": "[2]; cohort means, Table 4", "value": "−10.15 ± 1.5", "unit": "μm"}, {"measurement": "MST change, Left Eye (mean ± SD, μm)", "setting": "[2]; cohort means, Table 4", "value": "−7.92 ± 2.13", "unit": "μm"}, {"measurement": "MST change, Right Eye (mean ± SD, μm)", "setting": "[2]; cohort means, Table 4", "value": "−6.77 ± 1.74", "unit": "μm"}, {"measurement": "OST change, Left Eye (mean ± SD, μm)", "setting": "[2]; cohort means, Table 4", "value": "−7.60 ± 2.62", "unit": "μm"}, {"measurement": "OST change, Right Eye (mean ± SD, μm)", "setting": "[2]; cohort means, Table 4", "value": "−8.08 ± 2.47", "unit": "μm"}, {"measurement": "CST average thinning", "setting": "[2]; left eye, cohort", "value": "7.6±2.14", "unit": "microns"}, {"measurement": "MST average thinning", "setting": "[2]; left eye, cohort", "value": "7.2±2.54", "unit": "microns"}, {"measurement": "OST average thinning", "setting": "[2]; left eye, cohort", "value": "3.11±3.5", "unit": "microns"}, {"measurement": "CST average thinning", "setting": "[2]; right eye, cohort", "value": "10.27±2.2", "unit": "microns"}, {"measurement": "MST average thinning", "setting": "[2]; right eye, cohort", "value": "6.27±2.03", "unit": "microns"}, {"measurement": "OST average thinning", "setting": "[2]; right eye, cohort", "value": "3.8±3.08", "unit": "microns"}, {"measurement": "average thickness: center", "setting": "[2]; [5]", "value": 97, "unit": "micron"}, {"measurement": "average thickness: central max", "setting": "[2]; [5]", "value": 202, "unit": "micron"}, {"measurement": "average thickness: central min", "setting": "[2]; [5]", "value": 97, "unit": "micron"}, {"measurement": "average thickness: marker", "setting": "[2]; [5]", "value": 97, "unit": "micron"}, {"measurement": "average thickness: center", "setting": "[2]; [6]", "value": 112, "unit": "micron"}, {"measurement": "average thickness: central max", "setting": "[2]; [6]", "value": 216, "unit": "micron"}, {"measurement": "average thickness: central min", "setting": "[2]; [6]", "value": 104, "unit": "micron"}, {"measurement": "average thickness: marker", "setting": "[2]; [6]", "value": 112, "unit": "micron"}, {"measurement": "change in CST, MST, or OST", "setting": "[2]; subject 3, overall", "value": "little to no change"}, {"measurement": "change of OST", "setting": "[2]; subject 4, both eyes, especially left, phase 2 week 1 vs week 9", "value": "increase"}, {"measurement": "change of MST", "setting": "[2]; subject 4, either eye, phase 2 week 1 vs week 9", "value": "little to no change"}, {"measurement": "average thickness: center", "setting": "[2]; [7]", "value": 63, "unit": "micron"}, {"measurement": "average thickness: central max", "setting": "[2]; [7]", "value": 218, "unit": "micron"}, {"measurement": "average thickness: central min", "setting": "[2]; [7]", "value": 57, "unit": "micron"}, {"measurement": "average thickness: marker", "setting": "[2]; [7]", "value": 60, "unit": "micron"}, {"measurement": "average thickness: center", "setting": "[2]; [8]", "value": 58, "unit": "micron"}, {"measurement": "average thickness: central max", "setting": "[2]; [8]", "value": 199, "unit": "micron"}, {"measurement": "average thickness: central min", "setting": "[2]; [8]", "value": 54, "unit": "micron"}, {"measurement": "average thickness: marker", "setting": "[2]; [8]", "value": 56, "unit": "micron"}, {"measurement": "retinal thickness growth (stated after OST)", "setting": "[2]; subject 11, both eyes (one value per eye, eye not assigned)", "value": "15 microns and 16 microns"}, {"measurement": "change of OST", "setting": "[2]; [9]", "value": "increase"}, {"measurement": "change of CST or MST", "setting": "[2]; subject 11, either eye, phase 2 week 1 vs week 9", "value": "little to no change"}, {"measurement": "patients with improvement in EZ defect width (narrowing) in at least one eye", "setting": "[3]; cohort", "value": 5, "unit": "patients"}, {"measurement": "patients with improvement in EZ defect width in both eyes", "setting": "[3]; cohort", "value": 3, "unit": "patients"}, {"measurement": "EZ defect width, trend", "setting": "[3]; cohort, summary", "value": "trend in reducing EZ defect width"}, {"measurement": "EZ defect width average increase", "setting": "[3]; left eye, cohort", "value": "0.48±0.26", "unit": "mm"}, {"measurement": "EZ defect width average increase", "setting": "[3]; right eye, cohort", "value": "0.39±0.27", "unit": "mm"}, {"measurement": "ellipsoid zone (EZ) width change", "setting": "[3]; subject 3, especially left eye, phase 2 week 1 vs week 9", "value": "decreased in both eyes"}, {"measurement": "EZ defect width reduction", "setting": "[3]; subject 3, left eye", "value": 0.20, "unit": "mm"}, {"measurement": "EZ defect width", "setting": "[3]; [5]", "value": 2.91, "unit": "mm"}, {"measurement": "EZ defect width", "setting": "[3]; [6]", "value": 2.71, "unit": "mm"}, {"measurement": "EZ defect width reduction", "setting": "[3]; subject 3, right eye", "value": 0.13, "unit": "mm"}, {"measurement": "EZ defect width", "setting": "[3]; subject 4, right eye, Phase 2 Baseline", "value": 1.79, "unit": "mm"}, {"measurement": "EZ defect width", "setting": "[3]; subject 4, right eye, Phase 2 Month 6", "value": 1.85, "unit": "mm"}, {"measurement": "EZ defect width reduction", "setting": "[3]; subject 6, left eye", "value": 0.22, "unit": "mm"}, {"measurement": "EZ defect width reduction", "setting": "[3]; subject 6, right eye", "value": 0.27, "unit": "mm"}, {"measurement": "EZ width change", "setting": "[3]; [9]", "value": "stabilized"}, {"measurement": "EZ defect width", "setting": "[3]; subject 11, left eye, Phase 2 Baseline", "value": 2.20, "unit": "mm"}, {"measurement": "EZ defect width", "setting": "[3]; subject 11, left eye, Phase 2 Month 6", "value": 2.29, "unit": "mm"}, {"measurement": "autofluorescence (AF) based on quantitative AF", "setting": "[4]; subject 3, both eyes, especially left, phase 2 week 1 vs week 9", "value": "decrease"}, {"measurement": "qDAF value", "setting": "[4]; [5]", "value": 351}, {"measurement": "qDAF value", "setting": "[4]; [6]", "value": 268}, {"measurement": "qDAF value", "setting": "[4]; subject 3, right eye, phase 2 baseline", "value": 335}, {"measurement": "qDAF value", "setting": "[4]; subject 3, right eye, phase 2 month 6", "value": 275}]}]}
